According to patent US5597595A, “Low pH beverage fortified with calcium and vitamin D” (Abbott Laboratories, priority 1995, dated 1997):
Where a name gives a salt, the structure may show the parent alone. Read-outs that look alike come from different tables or passages of the source. One block for each compound: values may come before it.

Experiments:
[1] = without aluminum-containing drugs; normally functioning kidneys; cited from earlier work
[2] = rats fed three weeks, right femur calcium; cited from earlier work
[3] = Aluminum content of calcium sources; conditions: analysis of commercially available compounds
Excerpt: ^1 Values determined by analysis of commercially available compounds.

[4] = Recovery of vitamin D3 at 0-time; assay type: physicochemical
Excerpt: The low pH beverage, the vitamin D3 emulsion and the powder beverage are saponified with methanolic potassium hydroxide to destroy the fat and release the vitamin D3 for extraction. The saponified samples are extracted with an ether/pentane mixture and the extracts are evaporated to dryness using nitrogen and reconstituted with iso-octane. Sample extracts are eluted on a cleanup HPLC column (cyanopropyl bonded silica), and column switching is used to transfer a "slice" of the eluant containing vitamin D3 onto an additional HPLC analytical column (aminopropyl bonded silica) for final quantitation. The vitamin D3 peak in the sample is quantitated using a linear regression external standard curve.
To compare the initial processing loss and stability of vitamin D3 of each variable with successive batches, two criteria were routinely measured: (1) % recovery of vitamin D3 at 0-time; and (2) half life of vitamin D3 (t1/2).
The % recovery of vitamin D3 of each batch was calculated by dividing the 0-time vitamin D3 result by the theoretical fortification of each batch times 100%. […] As used herein "theoretical fortification" refers to amount of vitamin D3 added to the product. As used herein "0-time" refers to the time of initial vitamin D3 analysis of the product. […]

[5] = Method: In this evaluation solubility was determined by a visual examination.
[6] = in orange juice and apple juice; cited from earlier work
[7] = system: aciduric and acidophilic organisms like certain varieties of yeasts and molds; conditions: pH reduced from 4.5 to 3.0; cited from earlier work
[8] = weak acid; cited from earlier work
[9] = Acid-base and calcium binding constants of glycerophosphate; assay type: physicochemical; conditions: Henderson-Hasselbalch equation; listed as GP
Excerpt: GaGP binds calcium with an approximate formation constant of 1.7. CaGP, when dissolved in water, dissociates readily to provide "free" calcium ions and protonated glycerophosphate species. […] On the other hand, anions, such as malate, tartrate, propionate or succinate, do provide buffer capacity at pH=3.6, and accordingly require more base or acid than GP for final adjustment of pH.

[10] = Titratable acidity of calcium sources; assay type: physicochemical; conditions: with the exception of calcium chloride
Excerpt: Acidity is desired in the liquid nutritional product of the present invention for several reasons such as: to maintain the calcium salt solubility, to complement flavor, to control microbial growth, and to enhance the role of preservatives, specifically potassium benzoate or sodium benzoate. On the other hand, too much acidity can result in increased tartness and sourness that make the product undesirable from a sensory point of view. […] Titratable acidity is an indication of the total acidity of a beverage.

[11] = piglets; cited from earlier work
[12] = low birth weight infants; cited from earlier work
[13] = 600-800 IU/day; elderly, homebound or institutionalized individuals; cited from earlier work

Compound: O=C(O)CC(O)(CC(=O)O)C(=O)O [Calcium Citrate, calcium citrate]
risk of aluminum toxicity [1]: does not pose a risk of aluminum toxicity
relative calcium bioavailability as compared to a control [2]: 110%

Compound: [Ca+2].[OH-].[OH-] [Calcium Hydroxide]
Aluminum Content [3]: 300-400 parts per million (ppm)

vitamin D3 recovery, in words [4]: did not affect vitamin D3 recovery
Compound: N[C@@H](CS)C(=O)O [Cysteine]

solubility at 1 month, pH 5.0 [5]: partially Soluble
Compound: O=C(O)[C@H](O)[C@@H](O)[C@H](O)[C@H](O)CO [D-Gluconic-Acid, D-gluconic acid (hemicalcium salt)]

Compound: O=C(CO)[C@@H](O)[C@H](O)[C@H](O)CO [Fructose]
calcium bioavailability from CCM [6]: promoted positive calcium bioavailability

Compound: O=P([O-])([O-])[O-].O=P([O-])([O-])[O-].[Ca+2].[Ca+2].[Ca+2] [Tricalcium Phosphate, tricalcium phosphate]
relative calcium bioavailability as compared to a control [2]: 110%

Compound: O=C(O)c1ccccc1 [benzoic acid]
preservative effect on reducing pH [7]: increased by nearly three times

Compound: O=P(O)(O)OCC(O)CO (centres unmarked) [glycerophosphate]
pKf [8]: 6.1
effective acid-base buffering pH range / buffering capacity [9]: insignificant buffering capacity at pH=3.6

titratable acidity, in words [10]: lowest titratable acidity
Compound: Calcium Glycerophosphate [CaGP]
effectiveness as a source of calcium in TPN solutions [11]: as effective as calcium gluconate
effectiveness as a source of calcium in TPN solutions [12]: as effective as calcium gluconate

Compound: vitamin D
effect on calcium balance and fracture risk [13]: improve calcium balance and reduce fracture risk
